Results on 28 compounds are retold here after patent publication US20240025856A1, “1,2,3,4-TETRAHYDROQUINOLINE DERIVATIVES AS INHIBITORS OF THE YAP/TAZ-TEAD ACTIVATION FOR TREATING CANCER” (KATHOLIEKE UNIVERSITEIT LEUVEN, priority 2020, published 2024).

pIC50: −log10 of the molar value.

One assay has as its system YAP/TAZ-TEAD transcription. As to the kind of experiment: Reporter gene assay for measuring the inhibition of YAP/TAZ-TEAD transcription (TEAD-responsive element luciferase reporter in Hek293T cells). The assay is classed as cell-based. Particulars: Hek293T cells transiently transfected with TEAD-responsive element luciferase reporter; 24 hours incubation. On the procedure:
Hek293T cells are cultured in DMEM supplemented with 10% fetal bovine serum, Sodium pyruvate, Sodium bicarbonate, L-glutamine. The cells are harvested and transiently transfected with TEAD-responsive element luciferase reporter. Transfected cells are plated in 384-wells plate containing pre-diluted compounds. After 24 hours incubation at 37° C./5% CO2, assay plates were cooled down to RT and levelled to an equal volume per well, prior to the addition of 25 uL luciferase substrate SteadyLite (Perkin Elmer)/well. The plate was shaken for 10 min at 600 rpm, centrifuged for 1 min at 500 rpm and measured with an Envision reader (PerkinElmer). The amount of relative light units produced by the TEAD reporter is used to calculated percent of inhibition. The percent of reporter inhibition was calculated in the presence of a positive control inhibitor (100% inhibition) versus a condition with the presence of the vehicle basal activity of the reporter (0% inhibition). The ability of a test compound to inhibit this activity was determined as: Percentage inhibition=[[…]((RLU determined in the presence of vehicle−RLU determined for sample with test compound present) divided by (RLU determined in the presence of vehicle−RLU determined for sample with positive control inhibitor))]*100
The activities of example compounds tested are depicted in the table below. The activity ranges A, B and C refer to IC50 values in the reporter gene assay as follows: “A”: IC50<1 μM; “B”: 1 μM≤IC50≤20 μM and “C”: IC50>20 μM; NT=not tested.
A general note: A reporter such as luciferase makes a cellular process visible.
By pIC50 is commonly meant the IC50 on a negative log10 scale, so that one unit is a factor of ten. Higher therefore signals a low IC50. The compound `FC(F)(F)c1ccc(N2CC(C3CC(Br)=NO3)Cc3ccccc32)cc1` (single isomer, unassigned) [Cpd. No. 194(Dia1)-En2, 3-bromo-5-(1-(4-(trifluoromethyl)phenyl)-1,2,3,4-tetrahydroquinolin-3-yl)-4,5-dihydroisoxazole] showed a negative logarithm of the IC50 (pIC50) below 4.70.

Staying with this assay, now noted: Homo sapiens, HEK-293T, 24 h, Hek293T cells transiently transfected with TEAD-responsive element luciferase reporter; 24 hours incubation.
`CCC(=O)NCC1Cc2ccccc2N(c2ccc(C(F)(F)F)cc2)C1` (stereo not shown) [compound 098, N-((1-(4-(trifluoromethyl)phenyl)-1,2,3,4-tetrahydroquinolin-3-yl)methyl)propionamide]: the pIC50 is above 6.00. The same measure, in the same setting: as for `C=CC(=O)NC1Cc2ccccc2N(c2cnc(C(F)(F)F)nc2)C1` (stereo not shown) [compound 031, N-(1-(2-(trifluoromethyl)pyrimidin-5-yl)-1,2,3,4-tetrahydroquinolin-3-yl)acrylamide], the figure is above 6.00. Still for that read-out and setting: next, `C=CC(=O)NC1Cc2c(ccnc2N)N(c2ccc(C(F)(F)F)cc2)C1` (stereo not shown) [compound 146, N-(5-amino-1-(4-(trifluoromethyl)phenyl)-1,2,3,4-tetrahydro-1,6-naphthyridin-3-yl)acrylamide]: above 6.00. On the same count and under the same terms, as for `C=CC(=O)NC1Cc2c(C(N)=O)cccc2N(c2ccc(C(F)(F)F)cc2)C1` (stereo not shown) [compound 136, 3-acrylamido-1-(4-(trifluoromethyl)phenyl)-1,2,3,4-tetrahydroquinoline-5-carboxamide], the figure is above 6.00; as for `N#CCC(=O)NC1Cc2ccccc2N(c2ccc(C(F)(F)F)cc2)C1` (stereo not shown) [compound 052, 2-cyano-N-(1-(4-(trifluoromethyl)phenyl)-1,2,3,4-tetrahydroquinolin-3-yl)acetamide], 4.70 to 6.00. On to `C=CC(=O)NCC1Cc2ccccc2N(c2ccc(C=O)cc2)C1` (stereo not shown) [compound 159, N-((1-(4-formylphenyl)-1,2,3,4-tetrahydroquinolin-3-yl)methyl)acrylamide], for which the pIC50 was above 6.00. Still for that read-out and setting: as for `CNS(=O)(=O)CCNC1Cc2ccccc2N(c2ccc(C(F)(F)F)cc2)C1` (stereo not shown) [compound 051, N-methyl-2-((1-(4-(trifluoromethyl)phenyl)-1,2,3,4-tetrahydroquinolin-3-yl)amino)ethane-1-sulfonamide], the figure is 4.70 to 6.00; as for `CCC(=O)NCC1Cc2ccccc2N(c2ccc(C#N)cc2)C1` (stereo not shown) [compound 148, N-((1-(4-cyanophenyl)-1,2,3,4-tetrahydroquinolin-3-yl)methyl)propionamide], 4.70 to 6.00. For the compound `C=CC(=O)NC1Cc2c(Nc3cccnc3)cccc2N(c2ccc(C(F)(F)F)cc2)C1` (stereo not shown) [compound 070, N-(5-(pyridin-3-ylamino)-1-(4-(trifluoromethyl)phenyl)-1,2,3,4-tetrahydroquinolin-3-yl)acrylamide], the pIC50 was above 6.00.

The compound `C=CC(=O)N(CCOC)C1Cc2ccccc2N(c2ccc(C(F)(F)F)cc2)C1` (stereo not shown) [compound 133, N-(2-methoxyethyl)-N-(1-(4-(trifluoromethyl)phenyl)-1,2,3,4-tetrahydroquinolin-3-yl)acrylamide] showed a pIC50 of 4.70 to 6.00.

Regarding `C=CC(=O)NC1Cc2ccccc2N(c2ccc(OC)cc2)C1` (stereo not shown) [compound 007, N-(1-(4-methoxyphenyl)-1,2,3,4-tetrahydroquinolin-3-yl)acrylamide], the pIC50 is above 6.00. For the compound `C=CC(=O)NC1Cc2ccccc2N(c2cccc(F)c2F)C1` (stereo not shown) [compound 025, N-(1-(2,3-difluorophenyl)-1,2,3,4-tetrahydroquinolin-3-yl)acrylamide], the negative logarithm of the IC50 (pIC50) is above 6.00. `C=CC(=O)NC1Cc2c(-c3nnn[nH]3)cccc2N(c2ccc(C(F)(F)F)cc2)C1` (stereo not shown) [compound 137, N-(5-(1H-tetrazol-5-yl)-1-(4-(trifluoromethyl)phenyl)-1,2,3,4-tetrahydroquinolin-3-yl)acrylamide] gave a pIC50 below 4.70. Same read-out and setting: as for `C=CC(=O)NCC1Cc2ccccc2N(c2ccc(C(F)(F)F)cn2)C1` (stereo not shown) [compound 095], the figure is above 6.00; as for `C=CC(=O)NC1Cc2c(Nc3ccccc3)cccc2N(c2ccc(C(F)(F)F)cc2)C1` (stereo not shown) [compound 069, N-(5-(phenylamino)-1-(4-(trifluoromethyl)phenyl)-1,2,3,4-tetrahydroquinolin-3-yl)acrylamide], above 6.00; as for `C=CC(=O)NCC1Cc2c(C(=O)NS(C)(=O)=O)cccc2N(c2ccc(C(F)(F)F)cc2)C1` (stereo not shown) [compound 157, 3-(acrylamidomethyl)-N-(methylsulfonyl)-1-(4-(trifluoromethyl)phenyl)-1,2,3,4-tetrahydroquinoline-5-carboxamide], below 4.70. Same read-out and setting: next, `C=CC(=O)NC1Cc2c(CN)cccc2N(c2ccc(C(F)(F)F)cc2)C1` (stereo not shown) [compound 138, N-(5-(aminomethyl)-1-(4-(trifluoromethyl)phenyl)-1,2,3,4-tetrahydroquinolin-3-yl)acrylamide]: above 6.00. Consider `CCC(=O)NC1Cc2c(Nc3ccccc3)cccc2N(c2ccc(C(F)(F)F)cc2)C1` (stereo not shown) [compound 071, N-(5-(phenylamino)-1-(4-(trifluoromethyl)phenyl)-1,2,3,4-tetrahydroquinolin-3-yl)propionamide], for which the pIC50 was 4.70 to 6.00.

`C=CC(=O)NCC1Cc2ccccc2N(c2ccc(C(F)(F)F)c(F)c2)C1` (stereo not shown) [compound 112, N-((1-(3-fluoro-4-(trifluoromethyl)phenyl)-1,2,3,4-tetrahydroquinolin-3-yl)methyl)acrylamide] had a pIC50 above 6.00. On the same count and under the same terms, next, `C=CC(=O)NC1Cc2ccccc2N(C(=O)c2ccccc2)C1` (stereo not shown) [compound 172, N-(1-benzoyl-1,2,3,4-tetrahydroquinolin-3-yl)acrylamide]: below 4.70; `C=CC(=O)NC1Cc2c(C(=O)NC#N)cccc2N(c2ccc(C(F)(F)F)cc2)C1` (stereo not shown) [Cpd. No. 169, 3-acrylamido-N-cyano-1-(4-(trifluoromethyl)phenyl)-1,2,3,4-tetrahydroquinoline-5-carboxamide]: below 4.70. Same read-out and setting: as for `C=CS(=O)(=O)NC1Cc2ccccc2N(c2ccc(C(F)(F)F)cc2)C1` (stereo not shown) [compound 048, N-(1-(4-(trifluoromethyl)phenyl)-1,2,3,4-tetrahydroquinolin-3-yl)ethenesulfonamide], the figure is above 6.00. Regarding `C=CC(=O)NC1Cc2ccccc2N(c2ccc(-c3ccccc3)cc2)C1` (stereo not shown) [compound 008, N-(1-([1,1′-biphenyl]-4-yl)-1,2,3,4-tetrahydroquinolin-3-yl)acrylamide], the pIC50 was above 6.00. Still for that read-out and setting: next, `C=CC(=O)NC1Cc2c(Br)cccc2N(c2ccc(C(F)(F)F)cc2)C1` (stereo not shown) [compound 058, N-(5-bromo-1-(4-(trifluoromethyl)phenyl)-1,2,3,4-tetrahydroquinolin-3-yl)acrylamide]: above 6.00. Compound `C=CC(=O)NCC1Cc2ccccc2N(c2ccc(F)cc2)C1` (stereo not shown) [compound 097, N-((1-(4-fluorophenyl)-1,2,3,4-tetrahydroquinolin-3-yl)methyl)acrylamide] gave a pIC50 above 6.00. The same measure, in the same setting: next, `C=CC(=O)NC1Cc2ccccc2N(c2cc(F)cc(F)c2)C1` (stereo not shown) [compound 027, N-(1-(3,5-difluorophenyl)-1,2,3,4-tetrahydroquinolin-3-yl)acrylamide]: above 6.00; `CC(=O)NCC1Cc2c(C(=O)O)cccc2N(c2ccc(C(F)(F)F)cc2)C1` (stereo not shown) [compound 155, 3-(acetamidomethyl)-1-(4-(trifluoromethyl)phenyl)-1,2,3,4-tetrahydroquinoline-5-carboxylic acid]: below 4.70.
